Earlier results on 6 compounds are cited in paper PMC5668067, “Phase I dose-escalation study of the c-Met tyrosine kinase inhibitor SAR125844 in Asian patients with advanced solid tumors, including patients with MET-amplified gastric cancer” (Oncotarget, 2017).

Data set [1] has as its system unselected gastric cancer patients. Conditions: cited from earlier work.
The test system of data set [2] is gastric or gastroesophageal junction cancer. Conditions: cited from earlier work.
Data set [3] deals with highly MET-amplified (MET:CEP7 >5) gastroesophageal cancers. Details: method as in PMID 22042947. The note with it: cited from earlier work.
In data set [4] the test system is MET-amplified gastroesophageal junction, gastric, or esophageal tumors. Details: method as in ref 16 = [16]; 16 Kwak EL LoRusso P Hamid O Janku F Kittaneh M Catenacci DV Chan E Bekaii-Saab TS Amore B Hwang YC Tang R Ngarmchamnanrith G Hong DS Clinical activity of AMG 337, an oral MET kinase inhibitor, in adu. The note with it: eight of 13 patients with MET-amplified tumors; cited from earlier work.

On to `COc1cc2c(Oc3ccc(NC(=O)C4(C(=O)Nc5ccc(F)cc5)CC4)cc3F)ccnc2cc1OCCCN1CCOCC1` [foretinib], for which the objective responses entry in data set [1] is reported as “no objective responses”.

Regarding `O=C1NC(=O)[C@@H](c2cn3c4c(cccc24)CCC3)[C@@H]1c1c[nH]c2ccccc12` [tivantinib], the objective responses result in data set [1] was “no objective responses”.

Consider rilotumumab: an anti-HGF antibody, for which the “clinical benefit combined with chemotherapy” value in data set [2] (c-Met-positive gastric or gastroesophageal junction cancer) is recorded as “failed to show clinical benefit”.

As to onartuzumab: an anti-c-Met antibody, the “survival benefit of addition to chemotherapy” value in data set [2] (regardless of c-Met expression) was “no survival advantage”.

`C[C@@H](Oc1cc(-c2cnn(C3CCNCC3)c2)cnc1N)c1c(Cl)ccc(F)c1Cl` [crizotinib]: in data set [3], the “patients with tumor shrinkage” value was “two of four”.

Consider `COCCOc1cnc2ccn([C@H](C)c3nnc4c(F)cc(-c5cnn(C)c5)cn34)c(=O)c2c1` [AMG 337], for which the “partial or near complete response” value in data set [4] is 62%.
